Assay: Potency code of Table 2 (assay not stated)

Structure (SMILES) | Potency code
Cn1nc(C(F)(F)F)cc1-c1ccc(OCc2ccc(Cl)cc2)c(-c2ccc(C(N)=O)cc2)c1O [NUCC-0198409] | + (>40 +)
CCc1ccc(Oc2c(-c3ccc(OCc4ccc(Cl)c(Cl)c4)cc3O)nn(C)c2C(F)(F)F)cc1 [NUCC-0196354] | + (>40 +)
C#CCOc1ccc(COc2ccc(-c3cc(C(F)(F)F)n[nH]3)c(O)c2-c2cc(C(F)(F)F)cc(C(F)(F)F)c2)cc1 [NUCC-0201219] | ++++ (<10 ++++)
Oc1c(-c2cc(C(F)(F)F)[nH]n2)ccc(OCc2ccc(Cl)cc2)c1C1CC1 [NUCC-0201910] | + (>40 +)
CCc1ccc(Oc2c(-c3ccc(OCc4ccc(Cl)cc4)cc3OC)nn(C)c2C(F)(F)F)cc1 [NUCC-0196352] | + (>40 +)
COc1ccc(-c2c(-c3ccc(OCc4ccc(Cl)cc4)cc3O)nn(C)c2C)cc1 [NUCC-0198307] | + (>40 +)
Cn1nc(-c2ccc(OCCN)c(-c3ccc(Cl)c(C(F)(F)F)c3)c2O)cc1C(F)(F)F [NUCC-0201641] | + (>40 +)
Cn1nc(-c2ccc(OCc3ccc(C#N)cc3)c(-c3ccc(Cl)c(C(F)(F)F)c3)c2O)cc1C(F)(F)F [NUCC-0201912] | + (>40 +)
CCc1ccc(Oc2c(-c3ccc(OCc4cccc(OC)c4)cc3O)nn(C)c2C(F)(F)F)cc1 [NUCC-0196298] | ++ (30-40 ++)
Cc1cc(C)c(-c2c[nH]nc2-c2ccc(OCc3ccc(Cl)cc3)cc2O)c(C)c1 [NUCC-0198359] | ++ (30-40 ++)
CN1CCN(c2ccc(-c3cc(C(F)(F)F)[nH]n3)c(O)c2)CC1 [NUCC-0200567] | + (>40 +)
CCc1ccc(Oc2cn(C)nc2-c2ccc(OCc3ccc(Cl)cc3)cc2O)cc1 [NUCC-0176260] | + (>40 +)
CCc1ccc(Oc2c[nH]nc2-c2ccc(OCC3CCCCC3)cc2O)cc1 [NUCC-0176256] | + (>40 +)
COc1ccc(CCOc2ccc(-c3cc(C(F)(F)F)n[nH]3)c(O)c2-c2cc(C(F)(F)F)cc(C(F)(F)F)c2)cc1 [NUCC-0201027] | +++ (10-30 +++)
Oc1cc(OCc2ccc(Cl)cc2)ccc1-c1n[nH]cc1Oc1ccc(Cl)cc1 [NUCC-0196303] | + (>40 +)
Oc1c(-c2cc(C(F)(F)F)[nH]n2)ccc(OCc2ccc(Cl)cc2)c1-c1ccc(Cl)c(C(F)(F)F)c1 [NUCC-0200732] | + (>40 +)
Cn1nc(C(F)(F)F)cc1-c1ccc(OCc2ccc(Cl)cc2)cc1CO [NUCC-0200978] | + (>40 +)
Oc1c(-c2cc(C(F)(F)F)[nH]n2)ccc(OCc2ccc(Cl)cc2)c1-c1cccnc1 [NUCC-0196366] | + (>40 +)
Cn1nc(-c2ccc(OCc3ccc([N+](=O)[O-])cc3)c(-c3cc(C(F)(F)F)cc(C(F)(F)F)c3)c2O)cc1C(F)(F)F [NUCC-0201649] | + (>40 +)
Oc1c(-c2cc(C(F)(F)F)[nH]n2)ccc(OCc2ccc(Cl)cc2)c1-c1ccc(C(F)(F)F)c(Cl)c1 [NUCC-0200728] | + (>40 +)
CCc1ccc(Oc2c[nH]nc2-c2ccc(OCc3ccncc3)cc2O)cc1 [NUCC-0176254] | + (>40 +)
Cc1nn(C)c(-c2ccc(OCc3ccc(Cl)cc3)cc2O)c1-c1ccccc1 [NUCC-0198299] | + (>40 +)
CCc1c(-c2cccc(OC)c2)c(-c2ccc(OCc3ccc(Cl)cc3)cc2O)nn1C [NUCC-0198317] | + (>40 +)
CCc1ccc(Oc2c[nH]nc2-c2ccc(OCc3ccc(Cl)cc3)cc2O)cc1 [NUCC-0176243] | + (>40 +)
Cc1ccc(-c2c[nH]nc2-c2ccc(OCc3ccc(Cl)cc3)cc2O)cc1 [NUCC-0196345] | + (>40 +)

Structure (SMILES) | Potency code
Cn1nc(C(F)(F)F)cc1-c1ccc(OCCCNC(=O)OC(C)(C)C)c(-c2cncc(C(F)(F)F)c2)c1O [NUCC-0201655] | + (>40 +)
CCCCOc1ccc(-c2cc(C(F)(F)F)n(C)n2)c(O)c1-c1cc(C(F)(F)F)cc(C(F)(F)F)c1 [NUCC-0201652] | + (>40 +)
COc1ccc(-c2cc(C(F)(F)F)[nH]n2)c(O)c1-c1cc(C(F)(F)F)cc(C(F)(F)F)c1 [NUCC-0201220] | ++++ (<10 ++++)
COc1ccc(-c2c(-c3ccc(OCc4ccc(Cl)cc4)cc3O)noc2C(F)(F)F)cc1OC [NUCC-0196306] | + (>40 +)
Oc1cc(OCc2ccc(Cl)cc2)ccc1-c1n[nH]c(C(F)(F)F)c1Oc1cccc(F)c1 [NUCC-0196301] | + (>40 +)
Cn1nc(-c2ccc(OCc3cccnc3)c(-c3cc(C(F)(F)F)cc(C(F)(F)F)c3)c2O)cc1C(F)(F)F [NUCC-0201023] | + (>40 +)
Cn1nc(C(F)(F)F)cc1-c1cnc(O)cn1 [NUCC-0200689] | + (>40 +)
CCCCOc1ccc(-c2cc(C(F)(F)F)nn2C)c(O)c1-c1ccc(Cl)c(C(C)(C)F)c1 [NUCC-0201226] | +++ (10-30 +++)
Oc1cc(Nc2ccc(F)c(F)c2)ccc1-c1cc(C(F)(F)F)[nH]n1 [NUCC-0200559] | ++ (30-40 ++)
Nc1ccc(COc2ccc(-c3cc(C(F)(F)F)n[nH]3)c(O)c2-c2cc(C(F)(F)F)cc(C(F)(F)F)c2)cc1 [NUCC-0201201] | ++++ (<10 ++++)
Oc1cc(Nc2ccc(Cl)cc2)ccc1-c1cc(C(F)(F)F)[nH]n1 [NUCC-0200491] | ++++ (<10 ++++)
Cn1nc(C(F)(F)F)cc1-c1ccc(OCc2ccc(Cl)cc2)c(-c2cncc(C(F)(F)F)c2)c1O [NUCC-0201630] | + (>40 +)
Oc1cccc(COc2ccc(Cl)cc2)c1-c1cc(C(F)(F)F)n[nH]1 [NUCC-0200570] | + (>40 +)
COc1cccc(-c2c(C)nn(C)c2-c2ccc(OCc3ccc(Cl)cc3)cc2O)c1 [NUCC-0198313] | + (>40 +)
Cn1nc(-c2ccc(OCc3ccc(Cl)cc3)c(-c3cccc(C(F)(F)F)c3)c2O)cc1C(F)(F)F [NUCC-0200731] | + (>40 +)
CCc1ccc(Oc2c(-c3ccccc3O)n[nH]c2C(F)(F)F)cc1 [NUCC-0200683] | +++ (10-30 +++)
Cn1nc(-c2ccc(OCc3ccc(Cl)cc3)c(-c3cccc(C#N)c3)c2O)cc1C(F)(F)F [NUCC-0198400] | + (>40 +)
CCc1nn(C)c(-c2ccc(OCc3ccc(Cl)cc3)cc2O)c1-c1cccc(OC)c1 [NUCC-0198316] | + (>40 +)
COc1ccc(-c2cc(C(F)(F)F)n(C)n2)c(O)c1-c1cc(C(F)(F)F)cc(C(F)(F)F)c1 [NUCC-0201221] | + (>40 +)
CC(C)CCOc1ccc(-c2cc(C(F)(F)F)[nH]n2)c(O)c1-c1ccc(Cl)c(C(F)(F)F)c1 [NUCC-0201634] | ++ (30-40 ++)
Oc1cc(OCc2ccc(Cl)cc2)ccc1-c1n[nH]cc1-c1cc(C(F)(F)F)cc(C(F)(F)F)c1 [NUCC-0198318] | ++ (30-40 ++)
Cn1nc(C(F)(F)F)cc1-c1ccc(OCc2ccc(C#N)cc2)c(-c2ccc(Cl)c(C(F)(F)F)c2)c1O [NUCC-0201913] | + (>40 +)
NCCCOc1ccc(-c2cc(C(F)(F)F)n[nH]2)c(O)c1-c1ccc(Cl)c(C(F)(F)F)c1 [NUCC-0201646] | + (>40 +)
COc1ccc(COc2ccc(-c3cc(C(F)(F)F)n(C)n3)c(O)c2-c2cc(C(F)(F)F)cc(C(F)(F)F)c2)cc1 [NUCC-0201043] | + (>40 +)

Source: patent US20200392116A1, “SUBSTITUTED HETEROCYCLES AS c-MYC TARGETING AGENTS” (NORTHWESTERN UNIVERSITY, priority 2019, published 2020)
